# Several values for one entry are separate records, joined by “and”; a condition that tells them apart may be missing. Identical values can stand only once.
# System: OVCAR-5 complex spheroids with HUVEC/MSC, viability, % test/control
# Assay: Anticancer human tumor OVCAR-5 cell line growth inhibition [AhR];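 further: spheroids exposed to compounds for 7 days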;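 on viability, T/C: 100% = DMSO vehicle control wells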
# Details: for viability, T/C: stronger effect = lower value
# How it was run: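 Spheroids combined tumor cells with HUVEC endothelial cells and human MSCs as stroma. AhR antagonists were paired with standard or investigational drugs, each dosed in half-log steps down from near clinical Cmax, or from 10 microM where Cmax was unknown.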
# [1] = curve of first compound, second compound 0.1 µM
# [2] = curve of first compound, second compound 0.316 µM
# [3] = curve of first compound, second compound 1 µM
# [4] = curve of first compound, second compound 3.16 µM
# [5] = curve of first compound, second compound 10 µM
# [6] = second compound 0.1 µM, first compound 0.0316 µM
# [7] = second compound 0.1 µM, first compound 0.1 µM
# [8] = second compound 0.1 µM, first compound 0.316 µM
# [9] = second compound 0.1 µM, first compound 1 µM
# [10] = second compound 0.316 µM, first compound 0.0316 µM
# [11] = second compound 0.316 µM, first compound 0.1 µM
# [12] = second compound 0.316 µM, first compound 0.316 µM
# [13] = second compound 0.316 µM, first compound 1 µM
# [14] = second compound 1 µM, first compound 0.0316 µM
# [15] = second compound 1 µM, first compound 0.1 µM
# [16] = second compound 1 µM, first compound 0.316 µM
# [17] = second compound 1 µM, first compound 1 µM
# [18] = second compound 3.16 µM, first compound 0.0316 µM
# [19] = second compound 3.16 µM, first compound 0.1 µM
# [20] = second compound 3.16 µM, first compound 0.316 µM
# [21] = second compound 3.16 µM, first compound 1 µM
# [22] = second compound 10 µM, first compound 0.0316 µM
# [23] = second compound 10 µM, first compound 0.1 µM
# [24] = second compound 10 µM, first compound 0.316 µM
# [25] = second compound 10 µM, first compound 1 µM
# [26] = second compound 0.1 µM, first compound 0.00316 µM
# [27] = second compound 0.1 µM, first compound 0.01 µM
# [28] = second compound 0.316 µM, first compound 0.00316 µM
# [29] = second compound 0.316 µM, first compound 0.01 µM
# [30] = second compound 1 µM, first compound 0.00316 µM
# [31] = second compound 1 µM, first compound 0.01 µM
# [32] = second compound 3.16 µM, first compound 0.00316 µM
# [33] = second compound 3.16 µM, first compound 0.01 µM
# [34] = second compound 10 µM, first compound 0.00316 µM
# [35] = second compound 10 µM, first compound 0.01 µM
smiles,measurement,setting,value
CC1(C)CCC(CN2CCN(c3ccc(C(=O)NS(=O)(=O)c4ccc(NCC5CCOCC5)c([N+](=O)[O-])c4)c(Oc4cnc5[nH]ccc5c4)c3)CC2)=C(c2ccc(Cl)cc2)C1 + Cc1cncc(-c2nc(NCCc3c[nH]c4ccccc34)c3ncn(C(C)C)c3n2)c1,IC50,[1],> 10000 nM
same,IC50,[2],> 10000 nM
same,IC50,[3],> 10000 nM
same,IC50,[4],> 10000 nM
same,IC50,[5],< 31.6 nM
same,"viability, T/C",[6],105%
same,"viability, T/C",[7],103%
same,"viability, T/C",[8],106%
same,"viability, T/C",[9],106%
same,"viability, T/C","second compound 0.1 µM, first compound 3.16 µM",109%
same,"viability, T/C","second compound 0.1 µM, first compound 10 µM",90.1%
same,"viability, T/C",[10],101%
same,"viability, T/C",[11],103%
same,"viability, T/C",[12],102%
same,"viability, T/C",[13],105%
same,"viability, T/C","second compound 0.316 µM, first compound 3.16 µM",109%
same,"viability, T/C","second compound 0.316 µM, first compound 10 µM",89.5%
same,"viability, T/C",[14],101%
same,"viability, T/C",[15],100%
same,"viability, T/C",[16],102%
same,"viability, T/C",[17],103%
same,"viability, T/C","second compound 1 µM, first compound 3.16 µM",104%
same,"viability, T/C","second compound 1 µM, first compound 10 µM",86.8%
same,"viability, T/C",[18],81.5%
same,"viability, T/C",[19],85.6%
same,"viability, T/C",[20],86.3%
same,"viability, T/C",[21],83.4%
same,"viability, T/C","second compound 3.16 µM, first compound 3.16 µM",88.5%
same,"viability, T/C","second compound 3.16 µM, first compound 10 µM",75.3%
same,"viability, T/C",[22],4.28%
same,"viability, T/C",[23],4.26%
same,"viability, T/C",[24],5.72%
same,"viability, T/C",[25],3.52%
same,"viability, T/C","second compound 10 µM, first compound 3.16 µM",4.43%
same,"viability, T/C","second compound 10 µM, first compound 10 µM",9.47%
CC[C@@]1(O)C(=O)OCc2c1cc1n(c2=O)Cc2cc3c(CN(C)C)c(O)ccc3nc2-1 + Cc1cncc(-c2nc(NCCc3c[nH]c4ccccc34)c3ncn(C(C)C)c3n2)c1,IC50,[1],> 100 nM
same,IC50,[2],> 100 nM
same,IC50,[3],> 100 nM
same,IC50,[4],25.3 nM
same,IC50,[5],< 0.316 nM
same,"viability, T/C","second compound 0.1 µM, first compound 0.000316 µM",100%
same,"viability, T/C","second compound 0.1 µM, first compound 0.001 µM",105%
same,"viability, T/C",[26],97.4%
same,"viability, T/C",[27],87%
same,"viability, T/C",[6],49.3%
same,"viability, T/C",[7],52.3%
same,"viability, T/C","second compound 0.316 µM, first compound 0.000316 µM",97.9%
same,"viability, T/C","second compound 0.316 µM, first compound 0.001 µM",100%
same,"viability, T/C",[28],92.7%
same,"viability, T/C",[29],82.2%
same,"viability, T/C",[10],50%
same,"viability, T/C",[11],52.8%
same,"viability, T/C","second compound 1 µM, first compound 0.000316 µM",93.6%
same,"viability, T/C","second compound 1 µM, first compound 0.001 µM",91.6%
same,"viability, T/C",[30],90.1%
same,"viability, T/C",[31],79.9%
same,"viability, T/C",[14],48.4%
same,"viability, T/C",[15],55.8%
same,"viability, T/C","second compound 3.16 µM, first compound 0.000316 µM",79.2%
same,"viability, T/C","second compound 3.16 µM, first compound 0.001 µM",79.5%
same,"viability, T/C",[32],77.2%
same,"viability, T/C",[33],62.9%
same,"viability, T/C",[18],43.4%
same,"viability, T/C",[19],50.5%
same,"viability, T/C","second compound 10 µM, first compound 0.000316 µM",22.3%
same,"viability, T/C","second compound 10 µM, first compound 0.001 µM",24.9%
same,"viability, T/C",[34],26.9%
same,"viability, T/C",[35],16.5%
same,"viability, T/C",[22],6.78%
same,"viability, T/C",[23],14.5%
O=C(C=Cn1cnc(-c2cc(C(F)(F)F)cc(C(F)(F)F)c2)n1)NNc1cnccn1 + CC(CO)NC(=O)c1cc(-c2ccc(Cl)cc2)nn(-c2cnn(C)c2)c1=O,IC50,[1],1900 nM
same,IC50,[2],2180 nM
same,IC50,[3],2680 nM
same,IC50,[4],2020 nM
same,IC50,[5],1670 nM
same,"viability, T/C","second compound 0.1 µM, first compound 0.00949 µM",109%
same,"viability, T/C","second compound 0.1 µM, first compound 0.03 µM",113%
same,"viability, T/C","second compound 0.1 µM, first compound 0.0949 µM",101%
same,"viability, T/C","second compound 0.1 µM, first compound 0.3 µM",86.7%
same,"viability, T/C","second compound 0.1 µM, first compound 0.949 µM",66.4%
same,"viability, T/C","second compound 0.1 µM, first compound 3 µM",39.6%
same,"viability, T/C","second compound 0.316 µM, first compound 0.00949 µM",110%
same,"viability, T/C","second compound 0.316 µM, first compound 0.03 µM",110%
same,"viability, T/C","second compound 0.316 µM, first compound 0.0949 µM",104%
same,"viability, T/C","second compound 0.316 µM, first compound 0.3 µM",86%
same,"viability, T/C","second compound 0.316 µM, first compound 0.949 µM",64%
same,"viability, T/C","second compound 0.316 µM, first compound 3 µM",44.7%
same,"viability, T/C","second compound 1 µM, first compound 0.00949 µM",113%
same,"viability, T/C","second compound 1 µM, first compound 0.03 µM",114%
same,"viability, T/C","second compound 1 µM, first compound 0.0949 µM",111%
same,"viability, T/C","second compound 1 µM, first compound 0.3 µM",90.1%
same,"viability, T/C","second compound 1 µM, first compound 0.949 µM",70.2%
same,"viability, T/C","second compound 1 µM, first compound 3 µM",47.5%
same,"viability, T/C","second compound 3.16 µM, first compound 0.00949 µM",101%
same,"viability, T/C","second compound 3.16 µM, first compound 0.03 µM",112%
same,"viability, T/C","second compound 3.16 µM, first compound 0.0949 µM",103%
same,"viability, T/C","second compound 3.16 µM, first compound 0.3 µM",87.5%
same,"viability, T/C","second compound 3.16 µM, first compound 0.949 µM",69.7%
same,"viability, T/C","second compound 3.16 µM, first compound 3 µM",40.1%
same,"viability, T/C","second compound 10 µM, first compound 0.00949 µM",97%
same,"viability, T/C","second compound 10 µM, first compound 0.03 µM",98.2%
same,"viability, T/C","second compound 10 µM, first compound 0.0949 µM",97.6%
same,"viability, T/C","second compound 10 µM, first compound 0.3 µM",83.3%
same,"viability, T/C","second compound 10 µM, first compound 0.949 µM",65.8%
same,"viability, T/C","second compound 10 µM, first compound 3 µM",34.2%
CC1COCCN1c1cc(-c2ccnn2C)c2ccnc(-c3ccn[nH]3)c2n1 (configuration not stated) + Cc1ccccc1N=Nc1ccc(NC(=O)c2ccnn2C)c(C)c1,IC50,[1],244 nM
same,IC50,[2],253 nM
same,IC50,[3],284 nM
same,IC50,[4],269 nM
same,IC50,[5],272 nM
same,"viability, T/C",[26],102%
same,"viability, T/C",[27],101%
same,"viability, T/C",[6],98.5%
same,"viability, T/C",[7],79.9%
same,"viability, T/C",[8],41.4%
same,"viability, T/C",[9],26.3%
same,"viability, T/C",[28],104%
same,"viability, T/C",[29],105%
same,"viability, T/C",[10],101%
same,"viability, T/C",[11],81.1%
same,"viability, T/C",[12],42.5%
same,"viability, T/C",[13],28.2%
same,"viability, T/C",[30],108%
same,"viability, T/C",[31],110%
same,"viability, T/C",[14],101%
same,"viability, T/C",[15],87.5%
same,"viability, T/C",[16],45.5%
same,"viability, T/C",[17],30.1%
same,"viability, T/C",[32],109%
same,"viability, T/C",[33],109%
same,"viability, T/C",[18],105%
same,"viability, T/C",[19],88.6%
same,"viability, T/C",[20],43.4%
same,"viability, T/C",[21],32.5%
same,"viability, T/C",[34],105%
same,"viability, T/C",[35],106%
same,"viability, T/C",[22],101%
same,"viability, T/C",[23],82.2%
same,"viability, T/C",[24],45%
same,"viability, T/C",[25],33%
Nc1ccccc1NC(=O)c1ccc(CNC(=O)OCc2cccnc2)cc1,"viability, T/C",compound 0.0316 µM,92.2% and 93.7% and 84.8%
same,"viability, T/C",compound 0.1 µM,90.3% and 88.7% and 81.2%
same,"viability, T/C",compound 0.316 µM,75.1% and 77.2% and 67.5%
same,"viability, T/C",compound 1 µM,53.3% and 52.3% and 33.1%
same,"viability, T/C",compound 3.16 µM,23.5% and 21.1% and 19.9%
same,"viability, T/C",compound 10 µM,9.94% and 8.4% and 7.9%
same,IC50,curve of compound,1080 nM and 1050 nM and 580 nM

# — PubChem BioAssay AID1919015 (Molecular Pharmacology Branch, DTP, NCI, 2023)
